Data reported in patent US20220364184A1, “COMPOSITIONS AND METHODS FOR TREATMENT OF A POOR PROGNOSIS SUBTYPE OF COLORECTAL CANCER” (DANA-FARBER CANCER INSTITUTE, INC., priority 2019, published 2022).
Entries after “also recorded” stand apart in the source; their conditions may differ.

Tests used:
[1] = system: RGS4, CACNA2D1, ADRB1 mRNA; assay: mRNA expression by RNA-seq / qRT-PCR; format: cell-based, human; conditions: both wild-type and BCL9 knockout RKO cells, qRT-PCR, FIG. 17A
Procedure: RNA was extracted from wild type and BCL9 knockout RKO cells with or without Poly I:C treatment (1 μg/ml) and subsequently purified using the TURBO DNA-free™ Kit (AM1907, invitrogen) to remove any residual DNA. An RNA library was prepared using the ribosome RNA removing method and sequenced with a 150 bp paired-end protocol in the Center for Cancer Computational Biology at the Dana Farber Cancer Institute (PRJNA554110). After quality control (QC) analysis was performed using fastQC, the first 10 bases were trimmed for each read. STAR software was used to map the readings to the human genome (hg19) and duplicates were removed using Picard. HTSeq was used to evaluate the gene expression levels by the count number for each gene and were subsequently annotated using the Ensemble database. Gene differential analysis was then applied to the expression profiling table using R package edgeR. For further analysis, the difference in exon usage between different conditions was calculated and R package DEXSeq was used to find differences between them.

RKO cells [2] = assay: Live-cell calcium imaging of spontaneous calcium transients (GCaMP5); format: cell-based, human; conditions: for spontaneous calcium transients: FIG. 4C; for propagation of calcium transients: FIG. 5E
Procedure: (§1) 2 mg/ml neomycin was added to the cell culture medium 48 hrs after transfection to generate cell lines with stable GCaMP5 expression and removed one week prior to the initiation of experiment. Calcium transients were captured by live-cell imaging using a confocal microscope. Time lapse imaging was setup so that an image was captured every 0.5 s for 30 minutes, with an exposure time of 0.5 s. Calcium measurements were normalized to background fluorescence and the relative change in calcium (F(t)) over time was calculated by the formula: […]
where F0 was defined as the average intensity of the 20% lowest grey values in a region of interest (ROI), F was defined as the normalized grey values of ROI in time point t. Global synchronicity was calculated by cross correlation method in FluoroSNNAP (seas.upenn.edu/˜molneuro/fluorosnnap.html).

RKO cells [3] = assay: Wound healing (scratch) assay with calcium wave imaging; format: cell-based, human; conditions: for display of primary and secondary calcium waves after scratching: FIG. 19E-F, verapamil 500 nM
Procedure: Wild-type or BCL9 knockout cells were grown in 6-well plates or Nunc™ Glass Bottom Dishes (150680, ThermoFisher®) for 24 hrs until cells reached 90% confluency. A 1 ml pipette tip was used to scratch the monolayer of cells across the center of each well. The cells were imaged at 0 and 24 hours after scratching. To investigate the effect of BCL9 on calcium waves (FIG. 5H), cells were cultured in glass-bottomed 96-well plates for 24 hrs until they reached 90% confluency. […] A 200 μl pipette tip was used to scratch the cell monolayer from the top left to the bottom right corner of the well. At various times after the scratch was made, cells were fixed with 4% paraformaldehyde for 15 minutes at room temperature. Immunofluorescence was subsequently used to identify the location of BCL9 (see immunofluorescence method section for more detail). The wound edge in the center of the well was defined as “adjacent” and the area in the top right corner was defined as “distance” (FIG. 4H).
as §1, with “To trace the calcium transient in real time, GCaMP5G (#31788, Addgene®) was transfected into wild-type or BCL9 knockout RKO and Colo320 cell lines. 2” for “2”, “Time lapse imaging was setup so that an image was captured every 0.5 s for 30 minutes, with an exposure time of 0.5 s.” left out
where F0 was defined as the average intensity of the 20% lowest grey values in a region of interest (ROI), F was defined as the normalized grey values of ROI in time point t. Global synchronicity was calculated by cross correlation method in FluoroSNNAP (seas.upenn.edu/˜molneuro/fluorosnnap.html). The frequency spectrum was calculated by fast Fourier transform (Uhlen, P. (2004). Sci. STKE 2004, p 115), the time difference between each sample is 0.5 s.

RKO cells [4] = assay: In vivo mouse xenograft model (RKO-luciferase, intraperitoneal)
Procedure: A total of 4×10^6 wild-type or BCL9 knockout RKO cells stably transduced with a reporter expressing Luciferase were injected intraperitoneally into CB17.Cg-PrkdcscidLystbg-J/Crl (Beige) mice (n=7 per group), and tumor burden was monitored by whole-body imaging using Xenogen system every week for 4 weeks, starting one day after injection of cells. After last imaging, all mice were euthanized and all tumor nodules identified in the peritoneal cavity were dissected and processed for histological and immunohistochemical analysis. To quantify β-catenin and Ki-67 stains serial consecutive sections were scanned using Vectra 2 Intelligent Slide Analysis system; percentage of positive cells (Ki-67, CD163, CD31, or αSMA) or areas (β-catenin) were assessed using inform Cell Analysis software (PerkinElmer®). P-values were calculated using unpaired Student's t-test. Propranolol hydrochloride (Millapore-Sigma®) was added to the drinking water at a concentration of 0.5 g/L on the injection day. Drug solution was renewed every 2 days.
TMA sections (from Oncology Pathology, Dana Farber Cancer Institute) were pre-heated at 65 degrees for 20 mins and then deparaffined by performing the following washing steps: xylene 3×5 mins, 100% ethanol 5 mins, 95% ethanol 5 mins, 75% ethanol 5 mins, 50% ethanol 5 mins, 25% ethanol 5 mins, and rinsed by cold water. Sections were subsequently heated in a microwave with antigen retrieval buffer (10 mM Tris Base, 1 mM EDTA Solution, 0.05% Tween 20, pH 9.0). Sections were washed twice with TBS plus 0.5% Triton X-100 (v/v) and blocked with 5% BSA for 1 hr at room temperature. Sections were incubated overnight with the following antibodies at 4 degrees: BCL9 (ab37305, Abcam®), FAP (AF3715, R&D), β-catenin (610154, BD Transduction Laboratories), SYP (PA0299, Lecia), PDGFB (ab23914, Abcam®), C3 (HPA003563, Millapore-Sigma®), RGS4 (sc-398348, Santa Cruz®), CD163 (182422, Abcam®), CD31 (77699, Cell Signaling®), αSMA (19245, Cell Signaling®), or Axin2 (#2151, Cell Signaling®). The sections were washed three times before incubation with secondary antibody for 2 hours at room temperature. The sections were then washed three times before signal amplification with HRP polymer or fluorescence. ImageJ2 software was used to carry out semi-quantitative analysis of the staining intensities, which ranged from 0 (negative) to 3 (strong staining). Subsequently the H-score was calculated using the following formula;

[5] = system: RKO, Colo320, SW620, LS174T, DLD-1 cells; assay: Cell viability assay of CRC cell lines; conditions: Colo320, and SW620 more than LS174T or DLD-1 cells, increased concentrations, FIG. 20C
B-cell lymphoma 9 (BCL9) = molecular target: T1, B-cell lymphoma 9 (BCL9) (human, UniProt O00512 1-1426); assay: co-IP with anti-β-catenin antibody, untreated and poly I:C treated Colo320 cells
T1 construct: Endogenous protein in nuclear lysates of human CRC cell lines (RKO, Colo320, SW620, LS174T, DLD-1)
T1 sequence: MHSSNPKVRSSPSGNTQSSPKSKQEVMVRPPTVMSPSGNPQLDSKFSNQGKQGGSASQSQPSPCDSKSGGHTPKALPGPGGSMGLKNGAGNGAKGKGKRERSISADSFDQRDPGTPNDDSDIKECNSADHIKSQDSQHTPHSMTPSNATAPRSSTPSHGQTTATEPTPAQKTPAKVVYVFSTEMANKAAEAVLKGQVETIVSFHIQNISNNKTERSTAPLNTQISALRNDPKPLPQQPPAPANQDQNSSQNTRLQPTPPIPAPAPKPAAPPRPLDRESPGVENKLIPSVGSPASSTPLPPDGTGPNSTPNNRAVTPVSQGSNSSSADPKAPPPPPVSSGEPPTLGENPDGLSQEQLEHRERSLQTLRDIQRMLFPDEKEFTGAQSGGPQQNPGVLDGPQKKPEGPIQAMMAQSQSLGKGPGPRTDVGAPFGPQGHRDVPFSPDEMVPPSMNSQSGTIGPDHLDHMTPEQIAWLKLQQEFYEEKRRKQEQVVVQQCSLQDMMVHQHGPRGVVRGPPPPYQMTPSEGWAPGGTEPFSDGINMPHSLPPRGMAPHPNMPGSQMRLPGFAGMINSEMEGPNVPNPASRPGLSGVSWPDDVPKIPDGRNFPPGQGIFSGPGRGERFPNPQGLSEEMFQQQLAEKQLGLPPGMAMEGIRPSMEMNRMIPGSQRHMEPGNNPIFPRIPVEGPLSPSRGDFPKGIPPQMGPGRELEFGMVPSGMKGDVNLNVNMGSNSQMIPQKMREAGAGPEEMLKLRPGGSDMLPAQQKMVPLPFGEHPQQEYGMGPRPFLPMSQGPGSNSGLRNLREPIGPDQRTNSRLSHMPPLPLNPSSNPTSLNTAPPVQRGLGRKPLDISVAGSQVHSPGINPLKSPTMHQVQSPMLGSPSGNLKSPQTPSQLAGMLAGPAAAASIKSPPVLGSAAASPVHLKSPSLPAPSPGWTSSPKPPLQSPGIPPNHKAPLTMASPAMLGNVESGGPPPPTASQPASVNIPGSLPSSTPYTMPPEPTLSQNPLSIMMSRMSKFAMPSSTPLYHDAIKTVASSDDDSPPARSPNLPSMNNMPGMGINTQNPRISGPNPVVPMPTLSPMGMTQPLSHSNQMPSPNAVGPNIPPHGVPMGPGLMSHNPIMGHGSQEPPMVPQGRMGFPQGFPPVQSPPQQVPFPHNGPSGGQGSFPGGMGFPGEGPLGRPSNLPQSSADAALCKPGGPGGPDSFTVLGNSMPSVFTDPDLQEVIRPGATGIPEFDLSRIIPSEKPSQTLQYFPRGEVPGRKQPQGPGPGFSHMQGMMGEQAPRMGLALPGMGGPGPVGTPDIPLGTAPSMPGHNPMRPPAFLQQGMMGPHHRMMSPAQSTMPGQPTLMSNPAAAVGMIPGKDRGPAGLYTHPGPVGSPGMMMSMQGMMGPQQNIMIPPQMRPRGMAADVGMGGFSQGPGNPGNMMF

NCCc1ccc(O)c(O)c1 [dopamine]
expression of RGS4 and CACNA2D1 mRNAs [1]: increased

CC(C)NCC(O)COc1cccc2ccccc12 (stereo not drawn) [propranolol, 2-propanol, 1-[(1-methylethyl)amino]-3-(1-naphthalenyloxy)]
amplitude, frequency, and synchronicity of spontaneous calcium waves (RKO cells [2]; RKO cells, FIG. 20B): reduced | calcium transient activation after scratching (RKO cells [3]; FIG. 5F): inhibited calcium transients only in a subset of cells; also recorded: very few of them were activated | number of endothelial cells within tumor microenvironment (CD31) (RKO cells [4]; RKO xenograft, FIG. 6H-I): marked reduction | number of mouse derived M2 macrophages within tumor microenvironment (CD163) (RKO cells [4]; RKO xenograft, FIG. 6H-I): marked reduction | number of myofibroblast cells within tumor microenvironment (αSMA) (RKO cells [4]; RKO xenograft, FIG. 6H-I): not | expression of Axin2 in xenograft tumors (RKO cells [4]; control vs treated groups): did not display differences | mice that had died with extensive tumor burden (RKO cells [4]; three weeks after RKO cell injection, 0.5 g/L in drinking water, n=7): none | tumor burden (whole-body imaging) (RKO cells [4]; three weeks post tumor injection, 0.5 g/L in drinking water): disappeared in most | viability of CRC cell lines [5]: significantly reduced

COc1ccc(CCN(C)CCCC(C#N)(c2ccc(OC)c(OC)c2)C(C)C)cc1OC (stereo not drawn) [verapamil, Benzeneacetonitrile, α-[3-[[2-(3,4-dimethoxyphenyl)ethyl]methylamino]propyl]-3,4-dimethoxy-α-(1-methylethyl)]
spontaneous calcium transients (RKO cells [2]; RKO cells): disappeared | display of primary and secondary calcium waves after scratching (RKO cells [3]): disappeared; also recorded: blocked | viability of CRC cell lines [5]: significantly reduced

O=C(O)CN(CCN(CC(=O)O)CC(=O)O)CC(=O)O [EDTA, ethylene diamine tetra-acetic acid]
spontaneous calcium transients (RKO cells [2]; RKO cells): disappeared | display of primary and secondary calcium waves after scratching (RKO cells [3]): disappeared; also recorded: blocked

CC(C)(C)NCC(O)c1cc(O)cc(O)c1 (stereo not drawn) [Terbutaline]
propagation of calcium transients (RKO cells [2]; BCL9 knockout RKO cells): not | propagation of calcium transients (RKO cells [2]; wild-type RKO cells): induced

B1: β-catenin (other, UniProt P35222 2-781, looked up)
chain: ATQADLMELDMAMEPDRKAAVSHWQQQSYLDSGIHSGATTTAPSLSGKGNPEEEDVDTSQVLYEWEQGFSQSFTQEQVADIDGQYAMTRAQRVRAAMFPETLDEGMQIPSTQFDAAHPTNVQRLAEPSQMLKHAVVNLINYQDDAELATRAIPELTKLLNDEDQVVVNKAAVMVHQLSKKEASRHAIMRSPQMVSAIVRTMQNTNDVETARCTAGTLHNLSHHREGLLAIFKSGGIPALVKMLGSPVDSVLFYAITTLHNLLLHQEGAKMAVRLAGGLQKMVALLNKTNVKFLAITTDCLQILAYGNQESKLIILASGGPQALVNIMRTYTYEKLLWTTSRVLKVLSVCSSNKPAIVEAGGMQALGLHLTDPSQRLVQNCLWTLRNLSDAATKQEGMEGLLGTLVQLLGSDDINVVTCAAGILSNLTCNNYKNKMMVCQVGGIEALVRTVLRAGDREDITEPAICALRHLTSRHQEAEMAQNAVRLHYGLPVVVKLLHPPSHWPLIKATVGLIRNLALCPANHAPLREQGAIPRLVQLLVRAHQDTQRRTSMGGTQQQFVEGVRMEEIVEGCTGALHILARDVHNRIVIRGLNTIPLFVQLLYSPIENIQRVAAGVLCELAQDKEAAEAIEAEGATAPLTELLHSRNEGVATYAAAVLFRMSEDKPQDYKKRLSVELTSSLFRTEPMAWNETADLGLDIGAQGEPLGYRQDDPSYRSFHSGGYGQDALGMDPMMEHEMGGHHPGADYPVDGLPDLGHAQDLMDGLPPGDSNQLAWFDTDL
notes: Endogenous protein in cell lysates; co-IP with anti-β-catenin (9562L, Cell Signaling) or anti-BCL9 antibody; also called B-catenin
binding result (B-cell lymphoma 9 (BCL9)): binds
